The values that follow are results of earlier work, collected in publication PMC9773016, “Strebluses E–H, four new stilbene-like derivatives from the stems of Streblus ilicifolius” (RSC Advances, 2022).

The data set addresses Mushroom tyrosinase (Agaricus bisporus, UniProt C7FF04). On the set-up: method as in PMID 34306141, PMID 33939585. Particulars: value from previous study of the same authors; read-out: tyrosinase inhibitory effect IC50.

Sequence of Mushroom tyrosinase (C7FF04 1-392): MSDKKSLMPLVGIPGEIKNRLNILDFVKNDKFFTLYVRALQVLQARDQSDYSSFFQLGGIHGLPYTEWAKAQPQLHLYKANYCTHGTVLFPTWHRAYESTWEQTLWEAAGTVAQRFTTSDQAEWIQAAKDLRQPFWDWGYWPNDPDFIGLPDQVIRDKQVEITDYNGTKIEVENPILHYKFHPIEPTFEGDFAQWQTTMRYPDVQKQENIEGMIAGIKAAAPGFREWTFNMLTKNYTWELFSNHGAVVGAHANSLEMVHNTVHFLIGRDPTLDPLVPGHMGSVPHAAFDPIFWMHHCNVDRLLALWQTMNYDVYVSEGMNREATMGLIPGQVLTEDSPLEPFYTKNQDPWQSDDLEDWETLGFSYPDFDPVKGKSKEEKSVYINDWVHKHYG

For orientation: IC50 means the concentration that gives 50% inhibition. On to `CC(C)=CC[C@@]12OC(C)(C)O[C@@H]1CC(/C=C/c1ccc(O)cc1O)=CC2=O` [Streblus C], for which the concentration for half-maximal inhibition (IC50) is 10 nM.
